Measured values reported in ChEMBL document CHEMBL1201862, “PubChem BioAssay data set” (2004).
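Grown in 96-well plates, cells were treated for 48 hours with each compound at five concentrations. Insufficient inhibition: endpoint recorded as highest concentration tested. At the GI50, growth is halved.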 Active and inactive are the calls of the source. Cut-off read from the data, not from the text of the source: active = GI50 up to about 1.1 µM and inactive = higher.

Legend:
Test in all cases: growth of human tumour cells (NCI), 48 h
KM12 = system: KM12
OVCAR-4 = system: OVCAR-4
TK-10 = system: TK-10
HL-60 = system: HL-60
K562 = system: K562
NCI-H23 = system: NCI-H23
OVCAR-8 = system: OVCAR-8
A498 = system: A498
MDA-MB-435 = system: MDA-MB-435
U-251 = system: U-251
CAKI-1 = system: CAKI-1
A549 = system: A549
PC-3 = system: PC-3
SNB-19 = system: SNB-19
SF-539 = system: SF-539
Malme-3M = system: Malme-3M
NCI/ADR-RES = system: NCI/ADR-RES
HCT-116 = system: HCT-116
NCI-H460 = system: NCI-H460
SR = system: SR

Measured: GI50

CCOC(=O)/C(C(=O)Nc1cccc(Cl)c1)=C(/N)N1CCCC1
inactive: KM12 > 100 µM | OVCAR-4 > 100 µM | TK-10 > 100 µM | HL-60 > 100 µM | K562 > 100 µM | NCI-H23 > 100 µM | OVCAR-8 > 100 µM | A498 > 100 µM | MDA-MB-435 > 100 µM | U-251 > 100 µM | CAKI-1 > 100 µM | A549 > 100 µM | PC-3 > 100 µM | SNB-19 > 100 µM | SF-539 > 100 µM | Malme-3M > 100 µM | NCI/ADR-RES > 100 µM | HCT-116 > 100 µM | NCI-H460 > 100 µM

CC(Nc1cccc(Cl)c1)c1ccncc1 (stereo not given)
inactive: KM12 > 100 µM | OVCAR-4 > 100 µM | TK-10 > 100 µM | K562 23.1 µM | NCI-H23 71.3 µM | OVCAR-8 88.3 µM | A498 95.9 µM | MDA-MB-435 56.2 µM | U-251 > 100 µM | CAKI-1 40.7 µM | A549 > 100 µM | PC-3 30.5 µM | SNB-19 > 100 µM | SF-539 > 100 µM | Malme-3M > 100 µM | NCI/ADR-RES 51.3 µM | HCT-116 70.8 µM | NCI-H460 > 100 µM

C[C@H]1CC[C@@H]2[C@@H](C)C[C@H]3[C@@H]4C(C)(C)OC(=O)[C@]4(C)C(=O)[C@@]23C1=O
inactive: KM12 > 100 µM | OVCAR-4 > 100 µM | TK-10 > 100 µM | HL-60 > 100 µM | K562 > 100 µM | NCI-H23 > 100 µM | OVCAR-8 > 100 µM | A498 > 100 µM | MDA-MB-435 > 100 µM | CAKI-1 > 100 µM | A549 > 100 µM | SNB-19 > 100 µM | SF-539 > 100 µM | Malme-3M > 100 µM | NCI/ADR-RES > 100 µM | HCT-116 > 100 µM | NCI-H460 > 100 µM

Cc1ccc(-c2c(C#N)c(-c3ccc(Cl)cc3)c(C#N)c(=O)n2NS(=O)(=O)c2ccccc2)cc1
inactive: KM12 81.7 µM | OVCAR-4 37.2 µM | TK-10 74.3 µM | HL-60 73.1 µM | K562 88.1 µM | OVCAR-8 76.4 µM | A498 86.7 µM | MDA-MB-435 > 100 µM | U-251 74.8 µM | CAKI-1 37.2 µM | A549 68.4 µM | PC-3 29.9 µM | SNB-19 80.7 µM | SF-539 44.9 µM | Malme-3M > 100 µM | NCI/ADR-RES 26.9 µM | HCT-116 59 µM | NCI-H460 44.4 µM

CCOC(=O)CCC(NC(=O)C(N)c1ccc([N+](=O)[O-])cc1)C(=O)NC(CCC(=O)OCC)C(=O)OCC (stereo not given)
inactive: KM12 > 100 µM | TK-10 > 100 µM | HL-60 > 100 µM | K562 > 100 µM | SR > 100 µM | NCI-H23 > 100 µM | OVCAR-8 > 100 µM | A498 > 100 µM | U-251 > 100 µM | A549 > 100 µM | PC-3 > 100 µM | SNB-19 > 100 µM | Malme-3M > 100 µM | HCT-116 > 100 µM | NCI-H460 > 100 µM

Cc1c2c(cc3c(=O)ccn(CCN(C)C)c13)c(=O)ccn2CCN(C)C
inactive: KM12 3.08 µM | OVCAR-4 4.4 µM | TK-10 11.7 µM | HL-60 2.24 µM | K562 17.8 µM | SR 10.6 µM | NCI-H23 14.9 µM | OVCAR-8 4.76 µM | A498 21.4 µM | U-251 8.34 µM | CAKI-1 16.6 µM | A549 13.7 µM | SNB-19 8.34 µM | SF-539 15 µM | Malme-3M 27.4 µM | HCT-116 6.35 µM | NCI-H460 3.69 µM

Cc1c(Cl)cccc1/N=N/C(=O)NNc1cccc(Cl)c1C
inactive: OVCAR-4 12 µM | TK-10 15.8 µM | HL-60 17.8 µM | K562 16.8 µM | SR 21.3 µM | NCI-H23 16.7 µM | OVCAR-8 13.5 µM | A498 14.4 µM | MDA-MB-435 18.2 µM | U-251 16.2 µM | A549 16.9 µM | PC-3 13.3 µM | SNB-19 17.9 µM | Malme-3M 16.1 µM | HCT-116 15.3 µM | NCI-H460 16.6 µM

NCCCCN(CCCN)Cc1ccc2ccccc2c1
inactive: KM12 27.4 µM | OVCAR-4 39.4 µM | TK-10 > 100 µM | HL-60 67.5 µM | K562 > 100 µM | NCI-H23 25.3 µM | OVCAR-8 39.4 µM | A498 20.7 µM | MDA-MB-435 > 100 µM | U-251 59 µM | CAKI-1 13.8 µM | A549 51.9 µM | SNB-19 12.9 µM | SF-539 30.8 µM | Malme-3M 51.8 µM | NCI/ADR-RES > 100 µM | HCT-116 36.7 µM | NCI-H460 15.7 µM

NNC(=S)N/N=C(\c1nc2ccc(Cl)cc2nc1O)C(O)c1cccc([N+](=O)[O-])c1 (stereo not given)
inactive: KM12 > 100 µM | OVCAR-4 > 72.1 µM | TK-10 > 100 µM | HL-60 > 52.2 µM | K562 > 45.3 µM | SR 15.9 µM | NCI-H23 > 42.8 µM | OVCAR-8 > 100 µM | A498 > 100 µM | U-251 > 100 µM | CAKI-1 > 74.1 µM | A549 > 100 µM | SNB-19 > 100 µM | SF-539 > 31.8 µM | Malme-3M > 100 µM | HCT-116 > 31.6 µM | NCI-H460 > 75 µM

NCc1ccc(-c2ccc(CN)s2)s1
inactive: KM12 > 100 µM | OVCAR-4 > 100 µM | TK-10 11.3 µM | HL-60 > 100 µM | K562 > 100 µM | NCI-H23 > 100 µM | OVCAR-8 86.5 µM | A498 1.22 µM | MDA-MB-435 > 100 µM | U-251 > 100 µM | CAKI-1 > 100 µM | A549 > 100 µM | PC-3 > 100 µM | SNB-19 > 100 µM | SF-539 > 100 µM | Malme-3M > 100 µM | NCI/ADR-RES 13.1 µM | HCT-116 > 100 µM

CC(C)(C)OC(=O)C1=C(O)C(C(=O)OC(C)(C)C)C23CCCCC12C(C(=O)OC(C)(C)C)C(O)=C3C(=O)OC(C)(C)C (stereo not given)
inactive: KM12 > 100 µM | OVCAR-4 > 100 µM | TK-10 > 100 µM | HL-60 > 100 µM | K562 > 100 µM | SR > 100 µM | NCI-H23 > 100 µM | OVCAR-8 > 100 µM | A498 > 100 µM | U-251 > 100 µM | CAKI-1 > 100 µM | A549 > 100 µM | SNB-19 > 100 µM | SF-539 > 100 µM | Malme-3M > 100 µM | HCT-116 > 100 µM | NCI-H460 > 100 µM
